The data set in a line: Example 9 Part I: single oral doses of NC-758-1 in healthy elderly volunteers, plasma pharmacokinetics. The data set is classed as in vivo, human. Conditions: elderly male and female subjects, fasted; for AUC∞: mean, only subjects with estimable elimination rate constant. The source says: In the following examples and elsewhere herein, terms are as defined below. The pharmacokinetic parameters were derived by non-compartmental analysis using WinNonlin® (Pharsight Corporation, Mountain View, Calif.) or SAS® for Windows® (SAS Institute Inc., Cary, N.C.).
Part I—The pharmacokinetic profile and the effect of food on single oral doses of 3-APS free acid (modified-release enteric-coated tablet as described in Table 5 above, hereinafter “NC-758-1”) in healthy male and female elderly (≧55 years) volunteers. For doses at multiples of 50 mg, multiple 50 mg tables are administered. The test is an open label, three-period crossover study to assess the pharmacokinetic profile of 3 single oral doses of NC-758-1 in healthy elderly (≧55 years) male and female subjects. The blood samples are collected during 24 h following dosing. Plasma concentrations of 3-APS are determined using a validated LC-MS/MS method.

[1] abbreviates: single oral 50 mg NC-758-1 (Table 5 tablet), n = 9, mean.
The mark [2] stands for this setting: single oral 100 mg NC-758-1 (Table 5 tablet), n = 9, mean.
The mark [3] stands for this setting: single oral 150 mg NC-758-1 (Table 5 tablet), n = 8, mean.

We go through 1 molecule from patent publication US20060251714A1, “Pharmaceutical formulations of amyloid inhibiting compounds” (priority 2005, published 2006).

By AUC(0-t) is commonly meant the area under the concentration-time curve up to a stated or last time point. As usually defined, the Cmax is the maximum level reached in the sampled fluid or tissue. With `NCCCS(=O)(=O)O` [3-APS, 3-amino-1-propanesulfonic acid], the “AUC∞” value was 1566 ng·h/mL (single oral 50 mg NC-758-1 (Table 5 tablet)), 2871 ng·h/mL (single oral 100 mg NC-758-1 (Table 5 tablet)) and 4497 ng·h/mL (single oral 150 mg NC-758-1 (Table 5 tablet)). Also, the AUC(0-t) was 1537 ng·h/mL under setting [1], 3128 ng·h/mL under setting [2] and 5303 ng·h/mL under setting [3]. Also, the Cmax runs as follows: under setting [1], 469 ng/mL; under setting [2], 745 ng/mL; under setting [3], 1029 ng/mL.
